Results published in ChEMBL document CHEMBL3885881, “DrugMatrix”.

Organism: Rattus norvegicus
Test: DrugMatrix - Regimen: Daily Repeat
Type: toxicity, organism-based, Sprague-Dawley
Design: regimen Daily Repeat, gender Male, age 6-8 weeks
Conditions: in vivo, po, route oral GAVAGE, vehicle .5 % CMC; for ABSOLUTE BASOPHIL / ABSOLUTE EOSINOPHIL / ABSOLUTE LYMPHOCYTE / ABSOLUTE MONOCYTE / ABSOLUTE SEGMENTED NEUTROPHIL / BASOPHIL / EOSINOPHIL / ERYTHROCYTE COUNT / HEMATOCRIT / HEMOGLOBIN / LEUKOCYTE COUNT / LYMPHOCYTE / MEAN CORPUSCULAR HEMOGLOBIN / MEAN CORPUSCULAR HEMOGLOBIN CONCENTRATION / MEAN CORPUSCULAR VOLUME / MONOCYTE / NEUTROPHIL / NUCLEATED RED BLOOD CELLS / PLATELET COUNT: tissue Blood; for ALANINE AMINOTRANSFERASE / ALBUMIN / ALKALINE PHOSPHATASE / ASPARTATE AMINOTRANSFERASE / BLOOD UREA NITROGEN / CARBON DIOXIDE / CHLORIDE / CHOLESTEROL / CREATINE PHOSPHOKINASE / CREATININE / GLUCOSE / LACTATE DEHYDROGENASE / LIPASE / PHOSPHORUS / POTASSIUM / SODIUM / TOTAL BILIRUBIN / TOTAL PROTEIN / URIC ACID: tissue Plasma
[1] = 10 mg/kg, 72 h, dose level Low, time 3 day
[2] = 10 mg/kg, 120 h, dose level Low, time 5 day
[3] = 1500 mg/kg, 72 h, dose level High, time 3 day
[4] = 1500 mg/kg, 120 h, dose level High, time 5 day

In the case of `CCOC(=O)[C@H](CCc1ccccc1)N[C@@H](C)C(=O)N1CCC[C@H]1C(=O)O`, the “ABSOLUTE BASOPHIL” value [1] is reported as 0 CELLS/uL, the “ABSOLUTE EOSINOPHIL” value [1] is reported as 88 CELLS/uL and the “ABSOLUTE LYMPHOCYTE” value [1] is reported as 12760.67 CELLS/uL. The “ABSOLUTE MONOCYTE” value [1] was 130 CELLS/uL, the “ABSOLUTE SEGMENTED NEUTROPHIL” value [1] was 688 CELLS/uL and the BASOPHIL [1] was 0%. For the same compound, the EOSINOPHIL [1] was 0.67%, the “ERYTHROCYTE COUNT” value [1] was 5.43 x10E6/uL and the HEMATOCRIT [1] was 32.83%. For the same compound, the HEMOGLOBIN [1] was 13.1 G/DL, the “LEUKOCYTE COUNT” value [1] was 13.67 x10E3/uL and the LYMPHOCYTE [1] was 93.33%. The “MEAN CORPUSCULAR HEMOGLOBIN” value [1] was 24.13 pg, the “MEAN CORPUSCULAR HEMOGLOBIN CONCENTRATION” value [1] was 39.87 G/DL and the “MEAN CORPUSCULAR VOLUME” value [1] was 60.53 fL. For the same compound, the MONOCYTE [1] was 1%, the NEUTROPHIL [1] was 5% and the “NUCLEATED RED BLOOD CELLS” value [1] was 0.33 /100WBC. The “PLATELET COUNT” value [1] was 1331.67 x10E3/uL, the “ALANINE AMINOTRANSFERASE” value [1] was 46 u/L and the ALBUMIN [1] was 4.5 G/DL. The “ALKALINE PHOSPHATASE” value [1] was 398 u/L, the “ASPARTATE AMINOTRANSFERASE” value [1] was 79 u/L and the “BLOOD UREA NITROGEN” value [1] was 17.67 mg/dL. For the same compound, the “CARBON DIOXIDE” value [1] was 28.33 mmol/L, the CHLORIDE [1] was 98 MEQ/L and the CHOLESTEROL [1] was 60.33 mg/dL. For the same compound, the “CREATINE PHOSPHOKINASE” value [1] was 181.67 u/L, the CREATININE [1] was 0.17 mg/dL and the GLUCOSE [1] was 149.33 mg/dL. The “LACTATE DEHYDROGENASE” value [1] was 115.33 u/L, the LIPASE [1] was 9.67 u/L and the PHOSPHORUS [1] was 11.47 mg/dL. For the same compound, the POTASSIUM [1] was 6.99 MEQ/L, the SODIUM [1] was 142.87 MEQ/L and the “TOTAL BILIRUBIN” value [1] was 0.23 mg/dL. The “TOTAL PROTEIN” value [1] was 6.13 G/DL, the “URIC ACID” value [1] was 1.37 mg/dL and the “ABSOLUTE BASOPHIL” value [2] was 0 CELLS/uL. The “ABSOLUTE EOSINOPHIL” value [2] was 28.33 CELLS/uL, the “ABSOLUTE LYMPHOCYTE” value [2] was 10805 CELLS/uL and the “ABSOLUTE MONOCYTE” value [2] was 28.33 CELLS/uL. The “ABSOLUTE SEGMENTED NEUTROPHIL” value [2] was 738.33 CELLS/uL, the BASOPHIL [2] was 0% and the EOSINOPHIL [2] was 0.33%. For the same compound, the “ERYTHROCYTE COUNT” value [2] was 5.56 x10E6/uL, the HEMATOCRIT [2] was 34.6% and the HEMOGLOBIN [2] was 13.37 G/DL. For the same compound, the “LEUKOCYTE COUNT” value [2] was 11.6 x10E3/uL, the LYMPHOCYTE [2] was 93% and the “MEAN CORPUSCULAR HEMOGLOBIN” value [2] was 24.03 pg. For the same compound, the “MEAN CORPUSCULAR HEMOGLOBIN CONCENTRATION” value [2] was 38.63 G/DL, the “MEAN CORPUSCULAR VOLUME” value [2] was 62.23 fL and the MONOCYTE [2] was 0.33%. The NEUTROPHIL [2] was 6.33%, the “NUCLEATED RED BLOOD CELLS” value [2] was 0 /100WBC and the “PLATELET COUNT” value [2] was 1173.33 x10E3/uL. For the same compound, the “ALANINE AMINOTRANSFERASE” value [2] was 49.33 u/L, the ALBUMIN [2] was 4.27 G/DL and the “ALKALINE PHOSPHATASE” value [2] was 405.67 u/L. The “ASPARTATE AMINOTRANSFERASE” value [2] was 79.33 u/L, the “BLOOD UREA NITROGEN” value [2] was 17.33 mg/dL and the “CARBON DIOXIDE” value [2] was 26.33 mmol/L. The CHLORIDE [2] was 102.33 MEQ/L, the CHOLESTEROL [2] was 51.67 mg/dL and the “CREATINE PHOSPHOKINASE” value [2] was 399 u/L. The CREATININE [2] was 0.17 mg/dL, the GLUCOSE [2] was 175 mg/dL and the “LACTATE DEHYDROGENASE” value [2] was 121.67 u/L. It also gave an LIPASE [2] of 9 u/L, a PHOSPHORUS [2] of 11.1 mg/dL and a POTASSIUM [2] of 6.79 MEQ/L. For the same compound, the SODIUM [2] was 142.87 MEQ/L, the “TOTAL BILIRUBIN” value [2] was 0.23 mg/dL and the “TOTAL PROTEIN” value [2] was 6.07 G/DL. For the same compound, the “URIC ACID” value [2] was 1.2 mg/dL, the “ABSOLUTE BASOPHIL” value [3] was 0 CELLS/uL and the “ABSOLUTE EOSINOPHIL” value [3] was 63.67 CELLS/uL. The “ABSOLUTE LYMPHOCYTE” value [3] was 17047.67 CELLS/uL, the “ABSOLUTE MONOCYTE” value [3] was 127.33 CELLS/uL and the “ABSOLUTE SEGMENTED NEUTROPHIL” value [3] was 1494.67 CELLS/uL. The BASOPHIL [3] was 0%, the EOSINOPHIL [3] was 0.33% and the “ERYTHROCYTE COUNT” value [3] was 5.46 x10E6/uL. The HEMATOCRIT [3] was 34.33%, the HEMOGLOBIN [3] was 13.63 G/DL and the “LEUKOCYTE COUNT” value [3] was 18.73 x10E3/uL. The LYMPHOCYTE [3] was 91%, the “MEAN CORPUSCULAR HEMOGLOBIN” value [3] was 24.93 pg and the “MEAN CORPUSCULAR HEMOGLOBIN CONCENTRATION” value [3] was 39.7 G/DL. For the same compound, the “MEAN CORPUSCULAR VOLUME” value [3] was 62.93 fL, the MONOCYTE [3] was 0.67% and the NEUTROPHIL [3] was 8%. For the same compound, the “NUCLEATED RED BLOOD CELLS” value [3] was 1 /100WBC, the “PLATELET COUNT” value [3] was 1237.33 x10E3/uL and the “ALANINE AMINOTRANSFERASE” value [3] was 41.33 u/L. The ALBUMIN [3] was 4.27 G/DL, the “ALKALINE PHOSPHATASE” value [3] was 390.33 u/L and the “ASPARTATE AMINOTRANSFERASE” value [3] was 57.33 u/L. The “BLOOD UREA NITROGEN” value [3] was 34.67 mg/dL, the “CARBON DIOXIDE” value [3] was 32.33 mmol/L and the CHLORIDE [3] was 101.67 MEQ/L. The CHOLESTEROL [3] was 58.33 mg/dL, the “CREATINE PHOSPHOKINASE” value [3] was 191.33 u/L and the CREATININE [3] was 0.28 mg/dL. For the same compound, the GLUCOSE [3] was 143 mg/dL, the “LACTATE DEHYDROGENASE” value [3] was 90.33 u/L and the LIPASE [3] was 9 u/L. The PHOSPHORUS [3] was 12.8 mg/dL, the POTASSIUM [3] was 8.04 MEQ/L and the SODIUM [3] was 142.4 MEQ/L. The “TOTAL BILIRUBIN” value [3] was 0.27 mg/dL, the “TOTAL PROTEIN” value [3] was 6 G/DL and the “URIC ACID” value [3] was 1.53 mg/dL. The “ABSOLUTE BASOPHIL” value [4] was 0 CELLS/uL, the “ABSOLUTE EOSINOPHIL” value [4] was 0 CELLS/uL and the “ABSOLUTE LYMPHOCYTE” value [4] was 15341.33 CELLS/uL. For the same compound, the “ABSOLUTE MONOCYTE” value [4] was 266 CELLS/uL, the “ABSOLUTE SEGMENTED NEUTROPHIL” value [4] was 992.67 CELLS/uL and the BASOPHIL [4] was 0%. The EOSINOPHIL [4] was 0%, the “ERYTHROCYTE COUNT” value [4] was 6.24 x10E6/uL and the HEMATOCRIT [4] was 36.97%. The HEMOGLOBIN [4] was 15.13 G/DL, the “LEUKOCYTE COUNT” value [4] was 16.6 x10E3/uL and the LYMPHOCYTE [4] was 92.33%. The “MEAN CORPUSCULAR HEMOGLOBIN” value [4] was 24.23 pg, the “MEAN CORPUSCULAR HEMOGLOBIN CONCENTRATION” value [4] was 40.93 G/DL and the “MEAN CORPUSCULAR VOLUME” value [4] was 59.27 fL. For the same compound, the MONOCYTE [4] was 1.67%, the NEUTROPHIL [4] was 6% and the “NUCLEATED RED BLOOD CELLS” value [4] was 0.33 /100WBC. The “PLATELET COUNT” value [4] was 1399.33 x10E3/uL, the “ALANINE AMINOTRANSFERASE” value [4] was 39.33 u/L and the ALBUMIN [4] was 4.47 G/DL. For the same compound, the “ALKALINE PHOSPHATASE” value [4] was 328.67 u/L, the “ASPARTATE AMINOTRANSFERASE” value [4] was 73 u/L and the “BLOOD UREA NITROGEN” value [4] was 41 mg/dL. The “CARBON DIOXIDE” value [4] was 25.33 mmol/L, the CHLORIDE [4] was 101.67 MEQ/L and the CHOLESTEROL [4] was 48.67 mg/dL. The “CREATINE PHOSPHOKINASE” value [4] was 295.67 u/L, the CREATININE [4] was 0.37 mg/dL and the GLUCOSE [4] was 149 mg/dL. For the same compound, the “LACTATE DEHYDROGENASE” value [4] was 268.33 u/L, the LIPASE [4] was 9 u/L and the PHOSPHORUS [4] was 10.67 mg/dL. For the same compound, the POTASSIUM [4] was 9.54 MEQ/L, the SODIUM [4] was 140.13 MEQ/L and the “TOTAL BILIRUBIN” value [4] was 0.13 mg/dL. The “URIC ACID” value [4] was 1.4 mg/dL.
